Results reported in US9884065B2, “Inhibiting activity of senescent cells using a glucocorticoid” (Buck Institute for Research on Aging, priority 2011, dated 2018).

Assays:
[1] = tested on: K-Ras induced lung tumors; experiment: K-Ras mediated lung tumorigenesis in INK-ATTAC:K-RasLA1 mice; type: in vivo, mouse; design: dose or concentration left out as unconfirmed; conditions: INK-ATTAC3:K-RasLA1 and INK-ATTAC5:K-RasLA1 mice, from three weeks of age; 21 days after treatment
Source text: Briefly, INK-ATTAC (p16^Ink4a apoptosis through targeted activation of caspase) transgenic mice have an FK506-binding protein (FKBP)-caspase 8 (Casp8) fusion polypeptide under the control of the p16^Ink4a promoter (see FIG. 10 providing a vector sequence for the transgene and FIG. 11 providing sequences for components of the transgene including the promoter sequence). In the presence of AP20187, a synthetic drug that induces dimerization of a membrane bound myristoylated FKBP-Casp8 fusion protein, senescent cells specifically expressing the FKBP-Casp8 fusion protein via the p16^Ink4a promoter undergo programmed cell death (apoptosis) (see, e.g., Baker, Nature, supra, FIG. 1 therein). Two founder lines (INK-ATTAC^3 and INK-ATTAC^5) were each bred with the K-rasLA1 tumor model. […]
Two INK-ATTAC:K-RasLA1 were produced (one for INK-ATTAC line 3 and one for line 5). […] Twenty one days after treatment, the mice were sacrificed and tumor multiplicity in lungs was measured. […] In addition, metastasis and overall survival will be monitored after tumor induction in the presence or absence of p16-positive cells.

IL-6 = experiment: Initial drug screen (Prestwick Chemical Library), IL-6 ELISA of medium; type: cell-based, human; conditions: 2.5 μM, 48 hours, HCA2 fibroblasts, 0.2% serum
Description: The initial drug screen was performed in a 96-well format using automated liquid handling with a Biomek FX (Beckman Coulter, CA). Senescent cells were plated 24 hours after X-irradiation at 7,500 cells per well in 96-well plates. Six days after plating the senescent cells, the pre-senescent cells were plated at 7,500 cells per well in 96-well plates. Twenty-four hours after pre-senescent plating, both pre-senescent and senescent cells were washed and incubated in low (0.2%) serum for 48 hours to arrest cell proliferation of the pre-senescent cells. […] Forty-eight hours after compound addition, the medium in each well was removed and frozen for assay by ELISA to quantitate the levels of IL-6. The cells, which remained in the wells after the medium was removed, were lysed and ATP levels were measured (ATPlite 1-step assay, Perkin Elmer, MA) to exclude compounds that lowered IL-6 through toxicity (cell death). Experimental wells in each plate were normalized to plate mean or same-plate DMSO controls for the ELISA and ATP assays, respectively.
To identify small molecules that may be potential SASP modulators, a screening strategy that entailed administering compounds to parallel 96-well plates containing human fibroblasts (strain HCA2) that were either quiescent or senescent was developed. […] After 48 hours, the medium from each well was removed, and the cells were lysed. […] Cell lysates were assayed for ATP as a surrogate for cell number.

HCA2 human fibroblasts = conditions: 2.5 μM, 48 hours
Description: The initial drug screen was performed in a 96-well format using automated liquid handling with a Biomek FX (Beckman Coulter, CA). Senescent cells were plated 24 hours after X-irradiation at 7,500 cells per well in 96-well plates. Six days after plating the senescent cells, the pre-senescent cells were plated at 7,500 cells per well in 96-well plates. Twenty-four hours after pre-senescent plating, both pre-senescent and senescent cells were washed and incubated in low (0.2%) serum for 48 hours to arrest cell proliferation of the pre-senescent cells. Drugs from the Prestwick Chemical Library, which contains 1120 bio-available compounds in DMSO, were given to the cells at 2.5 μM in media containing 0.2% serum. Forty-eight hours after compound addition, the medium in each well was removed and frozen for assay by ELISA to quantitate the levels of IL-6. The cells, which remained in the wells after the medium was removed, were lysed and ATP levels were measured (ATPlite 1-step assay, Perkin Elmer, MA) to exclude compounds that lowered IL-6 through toxicity (cell death). Experimental wells in each plate were normalized to plate mean or same-plate DMSO controls for the ELISA and ATP assays, respectively.
To identify small molecules that may be potential SASP modulators, a screening strategy that entailed administering compounds to parallel 96-well plates containing human fibroblasts (strain HCA2) that were either quiescent or senescent was developed. The compounds tested comprised the Prestwick Chemical Library, a collection of approximately 1,120 Federal Drug Administration-approved drugs. The compounds were added to duplicate wells at a single concentration (2.5 μM). After 48 hours, the medium from each well was removed, and the cells were lysed. […] Cell lysates were assayed for ATP as a surrogate for cell number.

SASP = experiment: Multiplex ELISA of conditioned media from irradiated IMR90 fibroblasts (50 cytokines and growth factors); type: cell-based, human; conditions: 10 μM apigenin immediately after irradiation, analyzed 6 days later; less than 2 fold not considered significant
Description: To determine whether or to what extent apigenin suppressed the entire SASP, multiplex ELISA was used to interrogate the relative secretion of 50 cytokines and growth factors. IMR90 fibroblasts were treated with 10 μM apigenin or DMSO immediately after irradiation and analyzed 6 days later. Cells were washed and incubated in serum-free media without apigenin to generate conditioned media. Conditioned media from […], apigenin- or DMSO-treated irradiated IMR90 cells and control (mock-irradiated, DMSO-treated) cells were analyzed by ELISA for various SASP factors (FIG. 19).

SMILES	tumor multiplicity in lungs (tumor numbers) [1]	IL-6 secretion (ELISA) (IL-6)	ATP levels (HCA2 human fibroblasts)	secretion of SASP factors (fold difference over control) (SASP)
CC[C@H](C(=O)N1CCCC[C@H]1C(=O)O[C@H](CCc1ccc(OC)c(OC)c1)c1cccc(OCC(=O)NCC(CNC(=O)COc2cccc([C@@H](CCc3ccc(OC)c(OC)c3)OC(=O)[C@@H]3CCCCN3C(=O)[C@@H](CC)c3cc(OC)c(OC)c(OC)c3)c2)CN(C)C)c1)c1cc(OC)c(OC)c(OC)c1 [AP20187]	significantly reduced			
O=c1cc(-c2ccc(O)cc2)oc2cc(O)cc(O)c12 [apigenin, 4′,5,7-trihydroxyflavone]		capable of suppressing IL-6 secretion	without altering ATP levels	suppressed the secretion of several pro-inflammatory cytokines and chemokines, including, for example, TGFA, MCP3, LIF, IFNβ, IL-6, GROA, and IL-2
